Experimental findings from PMC10281360 (Microbial Biotechnology, 2023) are described below.

This assay concerns rAbf43A. The assay can be described thus: HPLC of released arabinose, Michaelis-Menten non-linear regression. The assay is classed as biochemical, metagenome: lignocellulolytic bacterial consortium EMSD5. Particulars: 0.05 M citric-Na2HPO4 pH 5.0, 40 °C, 10 min; AXHd3 activity; 0-40.0 mM substrate.

Turning to `OC[C@@H]1O[C@@H](O[C@@H]2[C@@H](O[C@@H]3O[C@@H](CO)[C@H](O)[C@H]3O)[C@H](O[C@@H]3CO[C@@H](O[C@@H]4COC(O)[C@H](O)[C@H]4O)[C@H](O)[C@H]3O)OC[C@H]2O)[C@H](O)[C@H]1O` (stereo partly drawn) [A2,3XX, 2^3,3^3‐di‐α‐L‐arabinofuranosyl‐xylotriose], the Michaelis constant (Km) came to 8.03 mM.

By Km is commonly meant the substrate concentration at which the rate is half of its maximum.
